Common to all, as to assay type: cell-based
The target in one experiment is T1, STAT3 (Homo sapiens, UniProt P40763).
T1 construct: This cell line is a clone created by using CRISPR-Cas9 to fuse HiBiT to the 3′ end of STAT3 in HeLa cells; host or cells: STAT3-HiBiT KI HeLa cell line (CRISPR-Cas9 knock-in clone)
Description: HiBiT assay, STAT3 degradation in STAT3-HiBiT KI HeLa cells. To be noted: 24 h; for DC50: read-out: STAT3 Degradation (HeLa 24 h HiBit) DC50. A digest of the protocol:
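HeLa cells with CRISPR knock-in of HiBiT at the STAT3 C-terminus, 20000 cells/well, treated with serial compound dilutions for 24 h at 37 °C, 5% CO2. Remaining STAT3 read by Nano-Glo HiBiT lytic luminescence versus untreated cells; IC50 from four-parameter nonlinear fit of triplicate means.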

The subject of a further experiment is SU-DHL-1 cells. Description: CellTiter-Glo 2.0 cell viability assay, SU-DHL-1. To be noted: Homo sapiens, 96 h, 4 days. A digest of the protocol: (§1)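 1000 cells per well exposed to serially diluted compounds for 4 days at 37 °C, 5% CO2. Viability measured by CellTiter-Glo 2.0 luminescence versus untreated cells; IC50 from four-parameter nonlinear fit of triplicate means.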

In another experiment the test system is SUP-M2 cells. Description: CellTiter-Glo 2.0 cell viability assay, SUP-M2. The conditions noted are these: SUP-M2, 96 h, 4 days. A digest of the protocol:
as §1

For nine compounds, Dmax, DC50 and IC50 results are on record in patent US20260226086A1, “COMPOUNDS AND COMPOSITIONS AS STAT3 DEGRADERS AND USES THEREOF” (REGENTS OF THE UNIVERSITY OF MICHIGAN, priority 2023, published 2026).

T1 sequence (P40763 whole entry): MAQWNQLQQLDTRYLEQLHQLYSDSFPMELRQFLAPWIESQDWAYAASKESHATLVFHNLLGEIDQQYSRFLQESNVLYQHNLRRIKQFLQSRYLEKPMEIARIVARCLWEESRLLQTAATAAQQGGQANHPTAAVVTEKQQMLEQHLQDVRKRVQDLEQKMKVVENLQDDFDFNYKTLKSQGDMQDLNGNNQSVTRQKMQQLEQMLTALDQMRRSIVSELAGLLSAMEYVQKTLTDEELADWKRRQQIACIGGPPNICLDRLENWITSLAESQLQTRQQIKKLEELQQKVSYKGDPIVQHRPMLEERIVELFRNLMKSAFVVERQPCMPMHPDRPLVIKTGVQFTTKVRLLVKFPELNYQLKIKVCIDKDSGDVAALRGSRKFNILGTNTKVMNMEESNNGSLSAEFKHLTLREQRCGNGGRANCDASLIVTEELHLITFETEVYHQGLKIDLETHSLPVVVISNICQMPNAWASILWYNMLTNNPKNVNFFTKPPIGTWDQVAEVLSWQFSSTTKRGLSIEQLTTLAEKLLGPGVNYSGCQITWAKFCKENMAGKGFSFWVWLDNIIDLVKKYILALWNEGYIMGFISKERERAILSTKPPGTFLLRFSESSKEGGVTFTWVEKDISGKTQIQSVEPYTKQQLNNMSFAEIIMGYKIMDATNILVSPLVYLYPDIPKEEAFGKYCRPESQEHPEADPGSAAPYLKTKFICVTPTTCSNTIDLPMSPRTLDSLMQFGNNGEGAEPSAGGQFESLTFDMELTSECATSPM

The compound `CC(=O)N1CC[C@H]2CC[C@@H](C(=O)N[C@@H](CCC(N)=O)COc3cccc(CCCCNC(=O)C[C@H](NC(=O)[C@@H]4C[C@@H](O)CN4C(=O)[C@H](C4CCCCC4)n4cc(C5CC5)nn4)c4ccc(-c5scnc5C)cc4)c3Cl)N2C(=O)[C@@H](NC(=O)c2cc3cc(C(=O)P(=O)(O)O)ccc3[nH]2)C1` [Compound 36, (2-(((5S,8S,10aR)-3-acetyl-8-(((S)-5-amino-1-(2-chloro-3-(4-((S)-3-((2S,4R)-1-((S)-2-cyclohexyl-2-(4-cyclopropyl-1H-1,2,3-triazol-1-yl)acetyl)-4-hydroxypyrrolidine-2-carboxamido)-3-(4-(4-methylthiazol-5-yl)phenyl)propanamido)butyl)phenoxy)-5-oxopentan-2-yl)carbamoyl)-6-oxodecahydropyrrolo[1,2-a][1,5]diazocin-5-yl)carbamoyl)-1H-indole-5-carbonyl)phosphonic acid] returned a maximal degradation (Dmax) at 1 µM on STAT3 above 80%. Also, on STAT3, the DC50 was below 10 nM. For the same compound, the IC50 in the experiment on SU-DHL-1 cells and in the experiment on SUP-M2 cells was below 10 nM in each case.
Turning to `CC(=O)N1CC[C@H]2CC[C@@H](C(=O)N[C@@H](CCC(N)=O)COc3cccc(CCCC(=O)N4CCC([C@@H](C(=O)N5C[C@H](O)C[C@H]5C(=O)N[C@@H](C)c5ccc(-c6scnc6C)cc5)n5cc(C6CC6)nn5)CC4)c3Cl)N2C(=O)[C@@H](NC(=O)c2cc3cc(C(=O)P(=O)(O)O)ccc3[nH]2)C1` [Compound 37, (2-(((5S,8S,10aR)-3-acetyl-8-(((S)-5-amino-1-(2-chloro-3-(4-(4-((S)-1-(4-cyclopropyl-1H-1,2,3-triazol-1-yl)-2-((2S,4R)-4-hydroxy-2-(((S)-1-(4-(4-methylthiazol-5-yl)phenyl)ethyl)carbamoyl)pyrrolidin-1-yl)-2-oxoethyl)piperidin-1-yl)-4-oxobutyl)phenoxy)-5-oxopentan-2-yl)carbamoyl)-6-oxodecahydropyrrolo[1,2-a][1,5]diazocin-5-yl)carbamoyl)-1H-indole-5-carbonyl)phosphonic acid], on STAT3, the Dmax at 1 µM lay in the range of 60 to 80% and the DC50 lay within 100 to 1000 nM. The compound also returned an IC50 with SU-DHL-1 cells above 1000 nM. In the experiment on SUP-M2 cells, this compound yielded an IC50 of 10 to 100 nM.
In the same order, the values of `CC(=O)N1CC[C@H]2CC[C@@H](C(=O)N[C@@H](CCC(N)=O)COc3cccc(CCCCN4CCC([C@@H](C(=O)N5C[C@H](O)C[C@H]5C(=O)N[C@@H](C)c5ccc(-c6scnc6C)cc5)n5cc(C6CC6)nn5)CC4)c3Cl)N2C(=O)[C@@H](NC(=O)c2cc3cc(C(=O)P(=O)(O)O)ccc3[nH]2)C1` [Compound 38, (2-(((5S,8S,10aR)-3-acetyl-8-(((S)-5-amino-1-(2-chloro-3-(4-(4-((S)-1-(4-cyclopropyl-1H-1,2,3-triazol-1-yl)-2-((2S,4R)-4-hydroxy-2-(((S)-1-(4-(4-methylthiazol-5-yl)phenyl)ethyl)carbamoyl)pyrrolidin-1-yl)-2-oxoethyl)piperidin-1-yl)butyl)phenoxy)-5-oxopentan-2-yl)carbamoyl)-6-oxodecahydropyrrolo[1,2-a][1,5]diazocin-5-yl)carbamoyl)-1H-indole-5-carbonyl)phosphonic acid] are 60 to 80%, 100 to 1000 nM, above 1000 nM and 10 to 100 nM.
Consider `CC(=O)N1CC[C@H]2CC[C@@H](C(=O)N[C@@H](CCC(N)=O)COc3cccc(CCCc4cn([C@H](C(=O)N5C[C@H](O)C[C@H]5C(=O)N[C@@H](CO)c5ccc(-c6scnc6C)cc5)C(C)(C)C)nn4)c3Cl)N2C(=O)[C@@H](NC(=O)c2cc3cc(C(=O)P(=O)(O)O)ccc3[nH]2)C1` [Compound 39, (2-(((5S,8S,10aR)-3-acetyl-8-(((S)-5-amino-1-(2-chloro-3-(3-(1-((S)-1-((2S,4R)-4-hydroxy-2-(((R)-2-hydroxy-1-(4-(4-methylthiazol-5-yl)phenyl)ethyl)carbamoyl)pyrrolidin-1-yl)-3,3-dimethyl-1-oxobutan-2-yl)-1H-1,2,3-triazol-4-yl)propyl)phenoxy)-5-oxopentan-2-yl)carbamoyl)-6-oxodecahydropyrrolo[1,2-a][1,5]diazocin-5-yl)carbamoyl)-1H-indole-5-carbonyl)phosphonic acid], for which, on STAT3, the Dmax at 1 µM is above 80% and the DC50 was below 10 nM. This compound also returned an IC50 with SU-DHL-1 cells below 10 nM. Further, the IC50 with SUP-M2 cells is below 10 nM.
Take `Cc1ncsc1-c1ccc([C@H](C)NC(=O)[C@@H]2C[C@@H](O)CN2C(=O)[C@@H](NC(=O)CC(=O)N2CC[C@H]3CC[C@@H](C(=O)N[C@@H](CCC(N)=O)C(=O)NC(c4ccccc4)c4ccccc4)N3C(=O)[C@@H](NC(=O)c3cc4cc(C(=O)P(=O)(O)O)ccc4[nH]3)C2)C(C)(C)C)cc1` [Compound 46, (2-(((5S,8S,10aR)-8-(((S)-5-amino-1-(benzhydrylamino)-1,5-dioxopentan-2-yl)carbamoyl)-3-(3-(((S)-1-((2S,4R)-4-hydroxy-2-(((S)-1-(4-(4-methylthiazol-5-yl)phenyl)ethyl)carbamoyl)pyrrolidin-1-yl)-3,3-dimethyl-1-oxobutan-2-yl)amino)-3-oxopropanoyl)-6-oxodecahydropyrrolo[1,2-a][1,5]diazocin-5-yl)carbamoyl)-1H-indole-5-carbonyl)phosphonic acid]: the DC50 at STAT3 is above 1000 nM. Moreover, the half-inhibitory concentration (IC50) in the experiment on SU-DHL-1 cells and in the experiment on SUP-M2 cells was above 1000 nM throughout.
Take `Cc1ncsc1-c1ccc([C@H](C)NC(=O)[C@@H]2C[C@@H](O)CN2C(=O)[C@@H](NC(=O)CCC(=O)N2CC[C@H]3CC[C@@H](C(=O)N[C@@H](CCC(N)=O)C(=O)NC(c4ccccc4)c4ccccc4)N3C(=O)[C@@H](NC(=O)c3cc4cc(C(=O)P(=O)(O)O)ccc4[nH]3)C2)C(C)(C)C)cc1` [Compound 47, (2-(((5S,8S,10aR)-8-(((S)-5-amino-1-(benzhydrylamino)-1,5-dioxopentan-2-yl)carbamoyl)-3-(4-(((S)-1-((2S,4R)-4-hydroxy-2-(((S)-1-(4-(4-methylthiazol-5-yl)phenyl)ethyl)carbamoyl)pyrrolidin-1-yl)-3,3-dimethyl-1-oxobutan-2-yl)amino)-4-oxobutanoyl)-6-oxodecahydropyrrolo[1,2-a][1,5]diazocin-5-yl)carbamoyl)-1H-indole-5-carbonyl)phosphonic acid]: the DC50 on STAT3 was 100 to 1000 nM. Moreover, the IC50 in the experiment on SU-DHL-1 cells and in the experiment with SUP-M2 cells was 100 to 1000 nM throughout.
Take `Cc1ncsc1-c1ccc([C@H](C)NC(=O)[C@@H]2C[C@@H](O)CN2C(=O)[C@@H](NC(=O)CCCC(=O)N2CC[C@H]3CC[C@@H](C(=O)N[C@@H](CCC(N)=O)C(=O)NC(c4ccccc4)c4ccccc4)N3C(=O)[C@@H](NC(=O)c3cc4cc(C(=O)P(=O)(O)O)ccc4[nH]3)C2)C(C)(C)C)cc1` [Compound 48, (2-(((5S,8S,10aR)-8-(((S)-5-amino-1-(benzhydrylamino)-1,5-dioxopentan-2-yl)carbamoyl)-3-(5-(((S)-1-((2S,4R)-4-hydroxy-2-(((S)-1-(4-(4-methylthiazol-5-yl)phenyl)ethyl)carbamoyl)pyrrolidin-1-yl)-3,3-dimethyl-1-oxobutan-2-yl)amino)-5-oxopentanoyl)-6-oxodecahydropyrrolo[1,2-a][1,5]diazocin-5-yl)carbamoyl)-1H-indole-5-carbonyl)phosphonic acid]: the 50% degradation concentration (DC50) on STAT3 is 10 to 100 nM. Further, the IC50 in the experiment with SU-DHL-1 cells and in the experiment on SUP-M2 cells was 10 to 100 nM in each case.
Take `Cc1ncsc1-c1ccc([C@H](C)NC(=O)[C@@H]2C[C@@H](O)CN2C(=O)[C@@H](NC(=O)CCCCC(=O)N2CC[C@H]3CC[C@@H](C(=O)N[C@@H](CCC(N)=O)C(=O)NC(c4ccccc4)c4ccccc4)N3C(=O)[C@@H](NC(=O)c3cc4cc(C(=O)P(=O)(O)O)ccc4[nH]3)C2)C(C)(C)C)cc1` [Compound 49, (2-(((5S,8S,10aR)-8-(((S)-5-amino-1-(benzhydrylamino)-1,5-dioxopentan-2-yl)carbamoyl)-3-(6-(((S)-1-((2S,4R)-4-hydroxy-2-(((S)-1-(4-(4-methylthiazol-5-yl)phenyl)ethyl)carbamoyl)pyrrolidin-1-yl)-3,3-dimethyl-1-oxobutan-2-yl)amino)-6-oxohexanoyl)-6-oxodecahydropyrrolo[1,2-a][1,5]diazocin-5-yl)carbamoyl)-1H-indole-5-carbonyl)phosphonic acid]: the DC50 at STAT3 was in the range of 10 to 100 nM. Further, the IC50 in the experiment on SU-DHL-1 cells and in the experiment on SUP-M2 cells was 10 to 100 nM each time.
`Cc1ncsc1-c1ccc([C@H](C)NC(=O)[C@@H]2C[C@@H](O)CN2C(=O)[C@@H](NC(=O)CCCCCC(=O)N2CC[C@H]3CC[C@@H](C(=O)N[C@@H](CCC(N)=O)C(=O)NC(c4ccccc4)c4ccccc4)N3C(=O)[C@@H](NC(=O)c3cc4cc(C(=O)P(=O)(O)O)ccc4[nH]3)C2)C(C)(C)C)cc1` [Compound 50, (2-(((5S,8S,10aR)-8-(((S)-5-amino-1-(benzhydrylamino)-1,5-dioxopentan-2-yl)carbamoyl)-3-(7-(((S)-1-((2S,4R)-4-hydroxy-2-(((S)-1-(4-(4-methylthiazol-5-yl)phenyl)ethyl)carbamoyl)pyrrolidin-1-yl)-3,3-dimethyl-1-oxobutan-2-yl)amino)-7-oxoheptanoyl)-6-oxodecahydropyrrolo[1,2-a][1,5]diazocin-5-yl)carbamoyl)-1H-indole-5-carbonyl)phosphonic acid]: the DC50 at STAT3 lay in the range of 100 to 1000 nM. Also, the IC50 in the experiment with SU-DHL-1 cells and in the experiment with SUP-M2 cells was 10 to 100 nM in each case.
